These results are taken from ChEMBL document CHEMBL2146405, “Isomalyngamide A, A-1 and their analogs suppress cancer cell migration in vitro” (Eur J Med Chem, 2011).

The source made the active and inactive calls. The calls are words filed in the database; no cut-off is given here.

A word on the inhibition: it is the change of the read-out against control, counted positive when it falls. The term IC50 denotes the concentration that inhibits the measured activity by half.

Data set [1] concerns MCF7. The data set is described as follows: Antiproliferative activity against human MCF7 cells at 20 uM after 48 hrs by MTT assay. Particulars: MCF7, 48 h. The class given is functional. (In general: Tetrazolium assays rely on reduction of a dye to a coloured formazan, in cell work by metabolically active cells.)
Data set [2] in a line: Inhibition of rat liver alpha 2,3-sialyltransferase.
Data set [3] deals with MDA-MB-231. The data set is described as follows: Antiproliferative activity against human MDA-MB-231 cells assessed as reduction in cell viability at 50 uM after 48 hrs by MTT assay. The class given is functional, cell-based.
The subject of data set [4] is MDA-MB-231. The data set is described as follows: cells. The note with it: Homo sapiens, MDA-MB-231, 16 h.
Description: Antimetastatic activity in human MDA-MB-231 cells assessed as inhibition of serum-induced cellular migration after 16 hrs by Boyden chamber assay
In data set [5] the test system is MDA-MB-231. Description: Antiproliferative activity against human MDA-MB-231 cells at 20 uM after 48 hrs by MTT assay. The note with it: MDA-MB-231, 48 h. The data set is classed as functional.
Data set [6] concerns the target Integrin beta-1 (Homo sapiens) (UniProt P05556). Description: Inhibition of beta1-integrin in human MDA-MB-231 cells after 2 hrs by Western blot analysis. The data set is classed as cell-based. Background: In western blotting, separated proteins are transferred to a membrane and probed.
For data set [7] the target is unchanged. The data set is described as follows: Inhibition of beta1-integrin in human MDA-MB-231 cells assessed as FAK protein level after 2 hrs by Western blot analysis. The data set is classed as cell-based.
Data set [8] has the same target. The data set is described as follows: Inhibition of beta1-integrin in human MDA-MB-231 cells assessed as FAK phosphorylation at Tyr576/Tyr577 after 2 hrs by Western blot analysis. The class given is cell-based.
Data set [9] has the same target. The data set is described as follows: Inhibition of beta1-integrin in human MDA-MB-231 cells assessed as Akt phosphorylation at Ser473 after 2 hrs by Western blot analysis. The data set is classed as cell-based.
Data set [10] has the same target. The data set is described as follows: Inhibition of beta1-integrin in human MDA-MB-231 cells assessed as Akt protein level after 2 hrs by Western blot analysis. The data set is classed as cell-based.
Data set [11] is filed under the species Rattus norvegicus. The data set is described as follows: Inhibition of rat liver alpha 2,3-sialyltransferase at 100 uM.
The subject of data set [12] is MCF7. The data set is described as follows: Antiproliferative activity against human MCF7 cells after 48 hrs by MTT assay. The data set is classed as functional, cell-based. The note with it: MCF7, 48 h.
Data set [13] has as its system MDA-MB-231. The data set is described as follows: Antimetastatic activity in human MDA-MB-231 cells assessed as inhibition of serum-induced cellular migration at 150 nM after 24 hrs by wound healing assay. The class given is functional, cell-based.
In data set [14] the test system is MDA-MB-231. The data set is described as follows: Antimetastatic activity in human MDA-MB-231 cells assessed as inhibition of cell migration-associated wound closure at 150 nM after 24 hrs of scratching by wound-healing assay. The data set is classed as functional, cell-based.
The test system of data set [15] is MDA-MB-231. Description: Antiproliferative activity against human MDA-MB-231 cells after 48 hrs by MTT assay. The note with it: MDA-MB-231, 48 h. The data set is classed as functional, cell-based.
A short description of data set [16]: Solubility of compound at 10 uM. The data set is classed as physicochemical.

Chain of Integrin beta-1 (Homo sapiens) (P05556 whole entry): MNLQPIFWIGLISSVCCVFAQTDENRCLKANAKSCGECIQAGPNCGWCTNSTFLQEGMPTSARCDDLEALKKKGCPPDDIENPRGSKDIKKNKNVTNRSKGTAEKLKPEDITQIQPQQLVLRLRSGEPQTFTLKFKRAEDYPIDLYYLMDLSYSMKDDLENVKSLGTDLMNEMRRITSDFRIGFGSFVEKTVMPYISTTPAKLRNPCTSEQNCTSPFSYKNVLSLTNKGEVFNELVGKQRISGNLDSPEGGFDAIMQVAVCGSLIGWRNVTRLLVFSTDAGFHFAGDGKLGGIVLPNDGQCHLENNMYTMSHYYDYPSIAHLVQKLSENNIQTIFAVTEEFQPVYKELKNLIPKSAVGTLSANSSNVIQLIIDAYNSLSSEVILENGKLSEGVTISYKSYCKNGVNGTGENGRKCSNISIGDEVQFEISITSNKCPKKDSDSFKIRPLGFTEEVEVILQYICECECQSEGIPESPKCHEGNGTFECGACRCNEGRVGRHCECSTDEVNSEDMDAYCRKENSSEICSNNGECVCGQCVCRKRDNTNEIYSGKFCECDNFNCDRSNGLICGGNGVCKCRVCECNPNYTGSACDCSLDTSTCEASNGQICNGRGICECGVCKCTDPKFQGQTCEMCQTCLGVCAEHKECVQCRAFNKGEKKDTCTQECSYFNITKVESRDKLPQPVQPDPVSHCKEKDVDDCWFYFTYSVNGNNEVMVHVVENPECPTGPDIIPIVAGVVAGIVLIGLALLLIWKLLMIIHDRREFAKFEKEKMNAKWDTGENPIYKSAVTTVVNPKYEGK

In the case of `CCCCCCCCCCCCCC(=O)NCCNC(=O)C(C)(C)C(=O)NCC(=O)O`, the inhibition at 20 µM was determined as 7% in data set [1] and 0% in data set [5]. For the same compound, the IC50 in [2] was found to be 37 µM; in data set [4], 22.7 µM. Also, the result in data set [3] was inactive.

Consider `CCCCCCCCCCCCCC(=O)NCCNC(=O)C(C)(C)C(=O)N1CC(=O)CC1=O`, for which the inhibition result in [6], in data set [7], in data set [8] and in [10] was “Dose-dependent effect” throughout. For the same compound, in data set [9], the inhibition result is “Active”.

On to `COC1=CC(=O)NC1`, for which the figures for the inhibition at 20 µM in data set [1] and in data set [5] were 2% and 3%, respectively. Also, the inhibition entry in data set [11] is “inactive”.

For `CCCCCCC[C@@H](C/C=C/CCC(=O)N(C)C/C(=C\Cl)C/C(=C\C(=O)N1CC(OC)=CC1=O)OC)OC` [ISOMALYNGAMIDE A], the half-maximal inhibitory concentration (IC50) came to 4.6 µM in data set [12], 77.2 µM in data set [2], 0.06 µM in data set [4] and 2.8 µM in [15]. Besides, the outcome in data set [13] and in [14] was Active.

In the case of `CCCCCCCCCCCCCC(=O)N1CC(OC)=CC1=O`, in data set [16], the solubility result is given as “Insoluble”.
